Measurements from patent publication US20250263436A1, “BROAD-SPECTRUM ANTIVIRAL DRUG FOR ENTEROVIRUS, AND APPLICATION” (WUHAN INSTITUTE OF VIROLOGY, CHINESE ACADEMY OF SCIENCES, priority 2020, published 2025).
“And” between values parts separate entries of the source, which are not always exact repeats. Equal entries are not always repeated.

What was measured:
Assay type in all cases: cell-based
[1] = Toxicity assay in 293T cells (CCK-8); conditions: human, 293T cells, read-out: Viability of Huh7 cell (%)
Protocol: (§1) (1) Different cells were plated in a 96-well plate at 100 μL per well.
(§2) (2) When the cells grew to a confluence of 70%-80%, the DMEM medium containing 10% serum was replaced with a DMEM medium containing 2% serum, and a certain concentration gradient of polypeptide RQ was added, so that the final concentrations of the polypeptide in the wells were 0.073242 μM, 0.146484 μM, 0.292969 μM, 0.585938 μM, 1.171875 μM, 2.34375 μM, 4.6875 μM, 9.375 μM, 18.75 μM, 37.5 μM, 75 μM, 150 μM, and 300 μM, respectively.
(§3) (3) The samples were collected 24 h after the addition of the polypeptide, and then 10 μL of live cell detection reagent CCK-8 was added to each well and mixed well.
(§4) (4) The plate was placed at 37° C. for 2 h.
(§5) (5) The absorbance value at OD450 was detected by a microplate reader.

293T cells = assay: Toxicity assay in 293T cells (CCK-8); conditions: 24 h
Protocol: as §1, §2, §3, §4, §5

CVB3 = assay: Inhibition of CVB3 in RD cells (viral RNA, qRT-PCR); conditions: inhibiting CVB3 in RD cells
Protocol: (1) RD cells were plated in a 24-well plate.
(2) When the cells grew to a confluence of 70%-80%, the DMEM medium containing 10% serum was replaced with a DMEM medium containing 2% serum (the DMEM medium containing 2% serum was added in each well at an amount of 0.5 mL), and 5 μL of CVB3 virus of 1×10^6 PFU/mL was added to each well.
(3) After 1 h, the polypeptides with final concentrations of 0.3125 μM, 0.625 μM, 1.25 μM, 2.5 μM, and 5 μM were added respectively. The group without polypeptide added was used as a control.
(4) The samples were collected 24 h after the infection of CVB3 virus, and RNA was extracted with the total RNA extraction kit.
(5) The supernatant was discarded, then 350 μL of TRK lysate was added to each well, and the plate was put on a shaker for 5 min.
(6) 350 μL of 70% ethanol (DEPC) was added to each well, and then the plate was put on a shaker for 5 min.
(7) The solution in each well was transferred to a RNA extraction column for 1 min of centrifugation at 12000 g.
(8) The solution obtained in the recovery tube was reloaded on the column again for 1 min of centrifugation at 12000 g.
(9) RNA washing buffer 1 was added in the column for 30 s of centrifugation at 12000 g. […]
(14) 2 μL of RNA sample was subjected to a fluorescence quantitative experiment using the one step qRT-PCR kit. […]

[2] = Table 15 (third cell line of Example 9), RQ 0.073242 μM

With CC[C@H](C)[C@H](NC(=O)[C@H](C)NC(=O)[C@H](CO)NC(=O)[C@H](CCCNC(=N)N)NC(=O)[C@H](CC(N)=O)NC(=O)[C@H](CC(N)=O)NC(=O)[C@H](Cc1ccc(O)cc1)NC(=O)[C@H](CCC(=O)O)NC(=O)[C@H](CCCNC(=N)N)NC(=O)CNC(=O)[C@H](CO)NC(=O)CNC(=O)[C@H](CCCNC(=N)N)NC(=O)[C@H](CCCNC(=N)N)NC(=O)[C@H](CCCNC(=N)N)NC(=O)[C@H](CCC(N)=O)NC(=O)[C@H](CCCNC(=N)N)NC(=O)[C@H](CCCNC(=N)N)NC(=O)[C@H](CCCCN)NC(=O)[C@H](CCCCN)NC(=O)[C@H](CCCNC(=N)N)NC(=O)CNC(=O)[C@@H](N)Cc1ccc(O)cc1)C(=O)NCC(=O)N[C@@H](CC(N)=O)C(=O)N[C@H](C(=O)N[C@H](C(=O)N[C@@H](CCC(=O)O)C(=O)N[C@@H](C)C(=O)N[C@@H](CC(C)C)C(=O)N[C@@H](Cc1ccccc1)C(=O)N[C@@H](CCC(N)=O)C(=O)O)[C@@H](C)CC)[C@@H](C)O [RQ] the Viability of 293T cells at 24 h, 0.073242 µM [1, 2] was 98.4%, the Viability of 293T cells at 24 h, 0.146484 µM ([1]; Table 15, RQ 0.146484 μM) was 101% and the Viability of 293T cells at 24 h, 0.292969 µM ([1]; Table 15, RQ 0.292969 μM) was 101%. The Viability of 293T cells at 24 h, 0.585938 µM ([1]; Table 15, RQ 0.585938 μM) was 100%, the Viability of 293T cells at 24 h, 1.17188 µM ([1]; Table 15, RQ 1.171875 μM) was 99.7% and the Viability of 293T cells at 24 h, 2.34375 µM ([1]; Table 15, RQ 2.34375 μM) was 99.1%. For the same compound, the Viability of 293T cells at 24 h, 4.6875 µM ([1]; Table 15, RQ 4.6875 μM) was 98.6%, the Viability of 293T cells at 24 h, 9.375 µM ([1]; Table 15, RQ 9.375 μM) was 99.7% and the Viability of 293T cells at 24 h, 18.75 µM ([1]; Table 15, RQ 18.75 μM) was 100%. For the same compound, the Viability of 293T cells at 24 h, 37.5 µM ([1]; Table 15, RQ 37.5 μM) was 102%, the Viability of 293T cells at 24 h, 75 µM ([1]; Table 15, RQ 75 μM) was 102% and the Viability of 293T cells at 24 h, 150 µM ([1]; Table 15, RQ 150 μM) was 66.6%. The “Viability of 293T cells” value (293T cells; [2]) was 100.4267% and 97.87%, the “Viability of 293T cells” value (293T cells; Table 15, RQ 0.146484 μM) was 100.8922% and 100.9503% and the “Viability of 293T cells” value (293T cells; Table 15, RQ 0.292969 μM) was 102.4631% and 100.8922%. The “Viability of 293T cells” value (293T cells; Table 15, RQ 0.585938 μM) was 102.8123% and 101.6486%, the “Viability of 293T cells” value (293T cells; Table 15, RQ 1.171875 μM) was 115.4383% and 103.5687% and the “Viability of 293T cells” value (293T cells; Table 15, RQ 2.34375 μM) was 100.3685% and 102.8704%. The “Viability of 293T cells” value (293T cells; Table 15, RQ 4.6875 μM) was 99.96% and 100.0776%, the “Viability of 293T cells” value (293T cells; Table 15, RQ 9.375 μM) was 99.96% and 94.03% and the “Viability of 293T cells” value (293T cells; Table 15, RQ 18.75 μM) was 99.9%. The “Viability of 293T cells” value (293T cells; Table 15, RQ 37.5 μM) was 101.1249% and 102.9286%, the “Viability of 293T cells” value (293T cells; Table 15, RQ 75 μM) was 98.97% and 99.5% and the “Viability of 293T cells” value (293T cells; Table 15, RQ 150 μM) was 63.83% and 64.4104%. For the same compound, the IC50 (CVB3) was 2310 nM.
